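These data come from cells grown in 96-well plates and exposed to compound for 48 hours at five concentrations. GI50 is the concentration that inhibits growth by half. TGI: total growth inhibition.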
Tests used:
Experiment in all cases: NCI anticancer screen, dose series, 48 h
DLD-1 colon = tested on: DLD-1 colon
SF-295 CNS = tested on: SF-295 CNS
OVCAR-8 ovarian = tested on: OVCAR-8 ovarian
OVCAR-3 ovarian = tested on: OVCAR-3 ovarian
CCRF-CEM leukemia = tested on: CCRF-CEM leukemia
DMS 273 small cell lung = tested on: DMS 273 small cell lung
OVCAR-4 ovarian = tested on: OVCAR-4 ovarian
LXFL 529 NSCLC = tested on: LXFL 529 NSCLC
MCF7 breast = tested on: MCF7 breast
DU-145 prostate = tested on: DU-145 prostate
MDA-N = tested on: MDA-N

CC(Sc1ccccc1)C(CO)(CO)[N+](=O)[O-] (configuration not stated)
TGI (DLD-1 colon): 29 µM
TGI (SF-295 CNS): 28.9 µM
TGI (OVCAR-8 ovarian): 28.7 µM
TGI (OVCAR-3 ovarian): 29.4 µM
TGI (CCRF-CEM leukemia): 7.51 µM
TGI (DMS 273 small cell lung): > 100 µM
TGI (OVCAR-4 ovarian): 32.1 µM
TGI (LXFL 529 NSCLC): 27.5 µM

O=C1c2cc3c(cc2-c2c1c1ccc(Cl)cc1c(=O)n2C[C@H](O)[C@@H](O)[C@H](O)CO)OCO3
GI50 (MCF7 breast): < 0.01 µM
TGI (MCF7 breast): 0.178 µM
GI50 (DU-145 prostate): 0.0374 µM
TGI (DU-145 prostate): > 100 µM
GI50 (OVCAR-8 ovarian): 0.0633 µM
TGI (OVCAR-8 ovarian): > 100 µM
GI50 (OVCAR-3 ovarian): 0.0758 µM
TGI (OVCAR-3 ovarian): 0.452 µM
GI50 (CCRF-CEM leukemia): < 0.01 µM
TGI (CCRF-CEM leukemia): 17 µM
GI50 (OVCAR-4 ovarian): 0.177 µM
TGI (OVCAR-4 ovarian): > 100 µM

O=C(O)C(CSC(c1ccccc1)(c1ccccc1)c1ccccc1)N=Cc1cccs1 (configuration not stated)
TGI (SF-295 CNS): > 100 µM
TGI (MCF7 breast): > 56 µM
TGI (DU-145 prostate): > 38.1 µM
TGI (OVCAR-8 ovarian): 42.3 µM
TGI (OVCAR-3 ovarian): 19.1 µM
TGI (CCRF-CEM leukemia): > 100 µM
TGI (OVCAR-4 ovarian): > 100 µM
TGI (MDA-N): 1.94 µM

O=S1(=O)OC(c2ccc(O)cc2)(c2ccc(O)cc2)c2ccccc21
TGI (SF-295 CNS): > 100 µM
TGI (MCF7 breast): > 100 µM
TGI (DU-145 prostate): > 100 µM
TGI (OVCAR-8 ovarian): > 100 µM
TGI (OVCAR-3 ovarian): > 100 µM
TGI (CCRF-CEM leukemia): > 100 µM
TGI (OVCAR-4 ovarian): > 100 µM

N#CC(c1ccccc1)N1CCCN(C(C#N)c2ccccc2)C1c1ccccc1O (configuration not stated)
TGI (SF-295 CNS): > 100 µM
TGI (MCF7 breast): > 100 µM
TGI (DU-145 prostate): > 100 µM
TGI (OVCAR-8 ovarian): > 100 µM
TGI (OVCAR-3 ovarian): > 100 µM
TGI (CCRF-CEM leukemia): > 100 µM
TGI (OVCAR-4 ovarian): > 100 µM
TGI (MDA-N): > 100 µM

Cc1cc(O)c(C(C)C)cc1CN1CCCCC1
TGI (SF-295 CNS): > 100 µM
TGI (MCF7 breast): > 100 µM
TGI (DU-145 prostate): > 100 µM
TGI (OVCAR-8 ovarian): > 100 µM
TGI (OVCAR-3 ovarian): > 100 µM
TGI (CCRF-CEM leukemia): > 100 µM
TGI (OVCAR-4 ovarian): > 100 µM
TGI (MDA-N): > 100 µM

Clc1ccc(Nc2nc(Cl)c3[nH]cnc3n2)cc1Cl
TGI (SF-295 CNS): 79.7 µM
TGI (MCF7 breast): > 100 µM
TGI (DU-145 prostate): > 100 µM
TGI (OVCAR-8 ovarian): > 100 µM
TGI (OVCAR-3 ovarian): 61 µM
TGI (CCRF-CEM leukemia): 48.2 µM
TGI (OVCAR-4 ovarian): > 100 µM
TGI (MDA-N): > 100 µM

CN(C)CCn1c(=O)c2ccc3c4c(nn3CCN(C)C)c3cc(N)ccc3n(c1=O)c24
TGI (SF-295 CNS): 0.584 µM
TGI (MCF7 breast): 1.17 µM
TGI (DU-145 prostate): 0.438 µM
TGI (OVCAR-8 ovarian): 0.454 µM
TGI (OVCAR-3 ovarian): 0.164 µM
TGI (OVCAR-4 ovarian): 0.0511 µM
TGI (MDA-N): 0.0752 µM

O=S(=O)(O)c1cccc2c(N=Nc3c(O)ccc4ccccc34)cccc12
TGI (SF-295 CNS): > 100 µM
TGI (DU-145 prostate): > 100 µM
TGI (OVCAR-8 ovarian): > 100 µM
TGI (OVCAR-3 ovarian): > 100 µM
TGI (CCRF-CEM leukemia): > 100 µM
TGI (OVCAR-4 ovarian): > 100 µM
TGI (MDA-N): > 100 µM

N[C@H]1CCN(c2c(F)cc3c(=O)c(C(=O)O)cn4c3c2Oc2cc3c(ccc5ccccc53)cc2-4)C1
TGI (SF-295 CNS): > 100 µM
TGI (MCF7 breast): > 100 µM
TGI (DU-145 prostate): > 100 µM
TGI (OVCAR-8 ovarian): > 100 µM
TGI (OVCAR-3 ovarian): > 100 µM
TGI (OVCAR-4 ovarian): > 100 µM
TGI (MDA-N): > 100 µM

CC[C@@]1(O)C(=O)OCc2c1cc1n(c2=O)Cc2c-1nc1ccc(O)cc1c2CC[Si](C)(C)C
TGI (SF-295 CNS): 0.0296 µM
TGI (DU-145 prostate): 0.00129 µM
TGI (OVCAR-8 ovarian): 0.197 µM
TGI (OVCAR-3 ovarian): 0.127 µM
TGI (CCRF-CEM leukemia): 0.464 µM
TGI (OVCAR-4 ovarian): 0.0538 µM

COc1ccc(/C=C(\C#N)c2nc(N)nc(N3N=C(C)CC3(C)C)n2)c(O)c1
TGI (SF-295 CNS): 43 µM
TGI (MCF7 breast): 45.5 µM
TGI (DU-145 prostate): 37.7 µM
TGI (OVCAR-8 ovarian): > 100 µM
TGI (OVCAR-3 ovarian): 28.3 µM
TGI (CCRF-CEM leukemia): 76.9 µM
TGI (OVCAR-4 ovarian): 30.4 µM

CC(=O)N(C)c1ccc2c(ccc[n+]2[O-])c1[N+](=O)[O-]
TGI (DLD-1 colon): > 100 µM
TGI (SF-295 CNS): > 100 µM
TGI (OVCAR-8 ovarian): > 100 µM
TGI (OVCAR-3 ovarian): > 100 µM
TGI (CCRF-CEM leukemia): > 100 µM
TGI (DMS 273 small cell lung): > 100 µM
TGI (OVCAR-4 ovarian): > 100 µM
TGI (LXFL 529 NSCLC): > 100 µM

CC1(C)CCC2(C(=O)OC3OC(CO)C(O)C(O)C3O)CCC3(C)C(=CCC4C5(C)CCC(OC6OC(CO)C(O)C(O)C6O)C(C)(C)C5CCC43C)C2C1 (configuration not stated)
TGI (SF-295 CNS): > 25 µM
TGI (MCF7 breast): > 25 µM
TGI (DU-145 prostate): > 25 µM
TGI (OVCAR-8 ovarian): > 25 µM
TGI (OVCAR-3 ovarian): > 25 µM
TGI (CCRF-CEM leukemia): 14 µM
TGI (OVCAR-4 ovarian): > 25 µM

C[C@]12CCC(=O)C=C1CC[C@@H]1[C@@H]2[C@@H](O)C[C@@]2(C)[C@H]1CC[C@]2(O)C(=O)CO
TGI (SF-295 CNS): > 100 µM
TGI (MCF7 breast): > 100 µM
TGI (DU-145 prostate): > 100 µM
TGI (OVCAR-8 ovarian): > 100 µM
TGI (OVCAR-3 ovarian): > 100 µM
TGI (CCRF-CEM leukemia): > 100 µM
TGI (OVCAR-4 ovarian): > 100 µM
TGI (MDA-N): > 100 µM

Nc1nc(N)c2c(n1)NC(c1ccccc1)CC(/C=C/c1ccc(Cl)cc1)=N2 (configuration not stated)
TGI (SF-295 CNS): 36.2 µM
TGI (MCF7 breast): 16 µM
TGI (DU-145 prostate): 24.4 µM
TGI (OVCAR-8 ovarian): 37.2 µM
TGI (OVCAR-3 ovarian): 23.4 µM
TGI (CCRF-CEM leukemia): 50.4 µM
TGI (OVCAR-4 ovarian): 20.5 µM
TGI (MDA-N): 24.4 µM

Nc1ccccc1N/C(=C\C(=O)C(Cl)(Cl)Cl)c1ccccc1
TGI (SF-295 CNS): > 100 µM
TGI (MCF7 breast): 83.4 µM
TGI (DU-145 prostate): > 100 µM
TGI (OVCAR-8 ovarian): > 100 µM
TGI (OVCAR-3 ovarian): 65.2 µM
TGI (CCRF-CEM leukemia): > 100 µM
TGI (OVCAR-4 ovarian): > 100 µM
TGI (MDA-N): 39 µM

Source: PubChem BioAssay (NCI)
